From patent publication US9610245B2, “Ophthalmic composition” (Drug Delivery Solutions Limited, priority 2011, dated 2017)

Experiment: Ex vivo permeation of cyclosporine through cornea, Ussing diffusion cells
Type: in vitro ADME, rabbit
Conditions: excipient changed in or added to the Example 1 formulation
Description: In order to determine the permeation of cyclosporine (CsA) formulations into and through the cornea, ex vivo studies were conducted. In brief, the corneas from rabbits were taken and mounted onto Ussing diffusion cells incubated at 37° C. and perfused with carbogen (95/5 oxygen/[…]). Approximately 3 ml sample was placed in the donor side of the chamber, 3 ml Ringers solution (6.5 g NaCl, 0.42 g KCl, 0.25 g CaCl2 and […] of Sodium bicarbonate per litre; isotonic solution pH 7.2) was placed in the receptor side of the chamber.
Permeation across the cornea was determined by collecting 200 μl receptor phase at the appropriate time points. At time zero and at 8 hours (termination of the experiment) 100 μl of sample from the donor phase was taken for analysis. Corneas were collected and split into the stomal and epithelial parts. The cyclosporine in the cornea sections were analysed after extraction into 50/50 methanol/water. Levels of CsA in the receptor chamber, the cornea and in the donor chamber were determined by HPLC analysis. Formulations used were based on Example 1. The table below summarises the changes made to this formulation.

effect of excipient on permeation of CsA into and through the cornea: no significant effect
Substance: benzalkonium chloride
